System: Mouse motor neurons
Assay: Gene expression array and pathway analysis, motor neurons, LMW-DS 0.01 mg/ml 48 h
Format: cell-based
Settings: for number of genes: abolished nutrient effect / number of genes: new effect induced by LMW-DS / number of genes: total / number of genes: enhanced response to nutrients / number of genes: not different from control / Activation z-score / Predicted activation state relative D2 control: motor neurons; for Activation z-score / Predicted activation state relative D2 control: D0 to LMW-DS treatment
Method: For each cell line, n=8 × 25 cm^2 culture flasks were set up. Two flasks were harvested for each cell type on the day of treatment (24 hours after seeding). This represents the Day0 time point. From the remaining flasks, three flasks were treated with Control Medium and three were treated with Culture Medium (CM) containing LMW-DS to give a final concentration of 0.01 mg/ml. Cells from the treated flasks were collected after 48 hours. Therefore the collected data represent (a) untreated cells (Day0 Controls and Day2 Controls) and (b) cells treated with LMW-DS (ILB®, Tikomed AB, Viken, Sweden, WO 2016/076780) for 48 hours (Day2 LMW-DS treated).
The culture medium was prepared according to Table 28.
Medium (see Table 28) was pre-warmed to 37° C. Cells were thawed in a 37° C. water bath for no longer than 2 min. 9 ml of media was gently added drop-wise. The cell suspension was mixed by inverting the tube carefully twice. The cells were counted with a Cellometer. The cells were centrifuged for 5 minutes at 200 x g. Supernatant was removed (to the last 0.5 ml) and cells were gently re-suspended by trituration. The cells from the 8 vials were mixed and distributed equally into the previously coated 25 cm^2 flasks (n=8). Cells were incubated at 37° C. with 5% CO2 for 24 hours before treatment.
LMW-DS was provided at a stock concentration of 20 mg/ml and was kept in a temperature monitored refrigerator at 4° C. A fresh 100x LMW-DS stock (1.0 mg/ml) was prepared in sterile DMEM-F12. The concentrated drug stock was sterile filtered and added to the respective culture media (19.6 ml CM and 0.4 ml LMW-DS stock solution). The Control was made using 19.6 ml CM and 0.4 ml of DMEM-F12. LMW-DS and CM were added to the respective flasks (5 ml each) to reach the 0.01 mg/ml concentration of LMW-DS in each dish with a total of 10 ml CM each.
CM was aspirated into a clean and labelled 15 ml Falcon tube. The flasks (without culture medium) were placed into the -80° C. freezer for 30 minutes. The CM in the Falcon tubes was spun at 3000 x g for 5 minutes. Supernatant was removed and the small pellet was re-suspended in 2.5 ml Trizol:Water (4:1) solution at room temperature (RT, ~22° C.).
Two aliquots of 1 ml lysate were removed from each sample and 200 µl of chloroform was added to each (0.2 ml of chloroform per 1 ml of TRIzol Reagent used during the cell lysis step) and the tube was shaken vigorously. Samples were stored at RT for 2-3 minutes and subsequently centrifuged at 12,000 x g for 15 minutes at 4° C.
The RNA was precipitated from the aqueous phase by adding an equal amount of 100% ethanol. The precipitated RNA was fixed onto a Spin Cartridge, washed twice and dried. The RNA was eluted in 50 µl warm RNase-Free Water. The amount and quality of the purified RNA was measured by Nanodrop. The RNA was stored at -80° C. before transfer to Source Bioscience for Array analysis.
The expression data were downloaded into separate files for each cell line. The ‘Background corrected’ expression is the data from the “gProcessedSignal” of the arrays that is the result of the background signal extracted from the actual signal of the relevant probe. This is the most often used variable in array analysis. The background corrected signal was log2 transformed for all samples for statistical analysis. To reduce the false discovery rate in the samples, the signals that were below ‘expression level’ were removed. The ‘below expression’ level was set at 5 for the log2 transformed expression values.
Based on the expression pattern of the Control probes on each array it was decided to carry out Median Centering for all arrays before analysis to reduce the variability of the results. […]

[1] = pathway analysis of gene expression

For sodium salt of dextran sulfate [LMW-DS], the “number of differentially expressed genes” value (D0 control to D2 LMW-DS treated) was 315, the “number of differentially expressed genes” value (D0 control to D2 LMW-DS treated (second statement)) was 425 and the “number of genes: abolished nutrient effect” value (no effect) was 177. The “number of genes: new effect induced by LMW-DS” value (“number of genes … by LMW-DS” for short) (no effect) was 108, the “number of genes: total” value (no effect) was 285 and the “number of genes: abolished nutrient effect” value (significant downregulation) was 47. For the same substance, the “number of genes: enhanced response to nutrients” value (“number of genes … to nutrients” for short) (significant downregulation) was 36, the “number of genes … by LMW-DS” value (significant downregulation) was 375 and the “number of genes: not different from control” value (“number of genes: not different” for short) (significant downregulation) was 104. The “number of genes: total” value (significant downregulation) was 562, the “number of genes: abolished nutrient effect” value (significant upregulation) was 40 and the “number of genes … to nutrients” value (significant upregulation) was 103. For the same substance, the “number of genes … by LMW-DS” value (significant upregulation) was 71, the “number of genes: not different” value (significant upregulation) was 75 and the “number of genes: total” value (significant upregulation) was 289. For the same substance, the “number of genes: abolished nutrient effect” value (total) was 264, the “number of genes … to nutrients” value (total) was 139 and the “number of genes … by LMW-DS” value (total) was 554. For the same substance, the “number of genes: not different” value (total) was 179, the “number of genes: total” value (total) was 1136 and the amyloid-β production [1] was “preventing”. For the same substance, the “inhibition of glutamate production” value [1] was “not affected”, the “level of H2O2” value [1] was “reduced” and the Activation z-score (upstream regulator AGT) was 2.631. The “Predicted activation state relative D2 control” value (upstream regulator AGT) was “Activated”, the Activation z-score (upstream regulator BMP4) was 0.972 and the “Predicted activation state relative D2 control” value (upstream regulator BMP4) was “More activated relative to control”. For the same substance, the Activation z-score (upstream regulator BMP6) was 0.13, the “Predicted activation state relative D2 control” value (upstream regulator BMP6) was “More activated relative to control” and the Activation z-score (upstream regulator BMP7) was 1.092. For the same substance, the “Predicted activation state relative D2 control” value (upstream regulator BMP7) was “More activated relative to control”, the Activation z-score (upstream regulator INHA) was 0.588 and the “Predicted activation state relative D2 control” value (upstream regulator INHA) was “More activated relative to control”.

Source: US20230346827A1 (priority 2020, published 2023)
